Source: patent publication US20230043863A1, “HETEROAROMATIC DERIVATIVES FOR USE AS REGULATOR, PREPARATION METHOD THEREFOR AND USE THEREOF” (JIANGSU HANSOH PHARMACEUTICAL GROUP CO., LTD., priority 2018, published 2023)

Tests used:
JAK3 = biological target: T1, JAK3 (Homo sapiens, UniProt P52333); assay: JAK kinase activity inhibition, TR-FRET (JAK3); format: biochemical; conditions: TR-FRET kinase assay
T1 sequence (P52333 1-1124): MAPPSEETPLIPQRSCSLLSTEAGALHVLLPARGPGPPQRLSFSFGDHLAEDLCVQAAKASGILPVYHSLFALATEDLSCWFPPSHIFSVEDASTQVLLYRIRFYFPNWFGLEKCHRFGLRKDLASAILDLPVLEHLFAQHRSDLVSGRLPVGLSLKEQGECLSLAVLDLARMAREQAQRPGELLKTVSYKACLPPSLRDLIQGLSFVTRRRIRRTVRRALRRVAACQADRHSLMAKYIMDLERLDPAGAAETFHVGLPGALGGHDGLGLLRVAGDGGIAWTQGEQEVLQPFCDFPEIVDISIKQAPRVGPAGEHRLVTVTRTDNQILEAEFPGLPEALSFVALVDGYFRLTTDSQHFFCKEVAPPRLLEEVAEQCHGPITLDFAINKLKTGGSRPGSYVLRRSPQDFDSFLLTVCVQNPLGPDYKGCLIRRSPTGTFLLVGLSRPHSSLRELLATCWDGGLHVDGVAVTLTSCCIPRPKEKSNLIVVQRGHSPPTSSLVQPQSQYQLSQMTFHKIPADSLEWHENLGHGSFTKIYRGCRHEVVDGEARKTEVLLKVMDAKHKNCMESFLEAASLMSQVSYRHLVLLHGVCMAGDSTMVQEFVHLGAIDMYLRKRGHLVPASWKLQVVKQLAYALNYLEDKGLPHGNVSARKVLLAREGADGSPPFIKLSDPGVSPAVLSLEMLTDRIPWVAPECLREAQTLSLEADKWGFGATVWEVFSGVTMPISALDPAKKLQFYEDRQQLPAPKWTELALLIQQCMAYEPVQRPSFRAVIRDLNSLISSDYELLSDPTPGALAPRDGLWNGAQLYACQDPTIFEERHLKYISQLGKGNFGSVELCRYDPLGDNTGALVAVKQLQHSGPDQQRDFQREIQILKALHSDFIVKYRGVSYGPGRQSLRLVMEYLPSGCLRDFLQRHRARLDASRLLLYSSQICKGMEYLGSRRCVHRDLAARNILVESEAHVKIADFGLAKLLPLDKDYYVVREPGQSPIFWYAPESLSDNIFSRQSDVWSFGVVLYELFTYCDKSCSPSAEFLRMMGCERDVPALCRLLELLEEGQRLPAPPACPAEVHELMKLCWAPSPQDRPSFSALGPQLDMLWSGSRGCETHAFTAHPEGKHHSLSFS
Protocol: (§1) Experimental objective: The objective of this test is to test the inhibitory effect of the compound on JAK kinase activity.
(§2) Experimental method: the fluorescence resonance energy transfer (TR-FRET) method was used to test the inhibitory effect of the compound on JAK kinase activity, and the half inhibitory concentration IC50 of the compound on JAK kinase activity was obtained.
(§3) Kinase reaction was carried out in a white 384-well plate (PerkinElmer). 1-5 μL of different concentrations of the compound diluted with DMSO and ddH2O was added into each well, and 1-5 μL of the corresponding solvent was added to the positive control wells, followed by addition of 0.1-20 nM JAK kinase solution diluted with 1-5 μL of kinase buffer (HEPES 50-250 mM, MgCl2 5-20 mM, etc.) was added to each well. 1-5 μL of kinase buffer was added to the negative control well. 1-5 μL of substrate mixture containing peptide substrate and ATP was added. The plate was incubated at room temperature for 0.5-5 hours. […], EDTA and detection solution containing labeled antibody was added, and then the plate was incubated at room temperature for another 1-24 hours. The fluorescence signal value at about 620 nm and 665 nm of each well was measured by BioTek Synergy H1 plate reader, and the inhibition rate was calculated by the fluorescence signal value. According to the inhibition rate of different concentrations, the IC50 of the compound was obtained by curve fitting.
(§4) The percentage inhibition data of the wells treated with the compound was calculated with the positive control wells (DMSO control wells) and negative control wells (no kinase added) on the plate {% inhibition rate=100-[(test compound value-negative control value)]/(Positive control value-negative control value)×100}. IC50 value was calculated by using GraphPad prism to fit the data of different concentrations and corresponding percentage inhibition rates to a 4-parameter non-linear logic formula.

TYK2 = TYK2 (Homo sapiens, UniProt P29597); assay: JAK kinase activity inhibition, TR-FRET (TYK2); format: biochemical; conditions: TR-FRET kinase assay
In short: (§5)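 Enzymatic inhibition measured by time-resolved FRET using 0.1-20 nM kinase with peptide substrate and ATP, reacted 0.5-5 hours at room temperature. Percent inhibition was normalized to DMSO (no inhibitor) and kinase-free wells, and concentration-response data were fitted with a 4-parameter logistic model.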

[1] = test system: JAK-STAT signal pathway of U266 cells; assay: Inhibition of cellular JAK-STAT signal pathway (STAT3 phosphorylation) in U266 cells; format: cell-based, human; conditions: Homo sapiens, U-266, INF-a 1000 U/mL stimulation
In short: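 U266 cells (100-300 K/well) preincubated 2 h at room temperature with serially diluted compound, then stimulated 15 min with IFN-α at 1000 U/mL final. After lysis, STAT3 phosphorylation read by LANCE Ultra TR-FRET (Eu antibody 0.5 nM, ULight antibody 5 nM, overnight) at 665 nm; IC50 from 4-parameter fit of inhibition versus DMSO and negative controls.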

JAK1 = JAK1 (Homo sapiens, UniProt P23458); assay: JAK kinase activity inhibition, TR-FRET (JAK1); format: biochemical; conditions: TR-FRET kinase assay
In short: as §5

JAK2 = JAK2 (Homo sapiens, UniProt O60674); assay: JAK kinase activity inhibition, TR-FRET (JAK2); format: biochemical; conditions: TR-FRET kinase assay
Protocol: as §1, §2, §3, §4

Chain of TYK2 (P29597 whole entry): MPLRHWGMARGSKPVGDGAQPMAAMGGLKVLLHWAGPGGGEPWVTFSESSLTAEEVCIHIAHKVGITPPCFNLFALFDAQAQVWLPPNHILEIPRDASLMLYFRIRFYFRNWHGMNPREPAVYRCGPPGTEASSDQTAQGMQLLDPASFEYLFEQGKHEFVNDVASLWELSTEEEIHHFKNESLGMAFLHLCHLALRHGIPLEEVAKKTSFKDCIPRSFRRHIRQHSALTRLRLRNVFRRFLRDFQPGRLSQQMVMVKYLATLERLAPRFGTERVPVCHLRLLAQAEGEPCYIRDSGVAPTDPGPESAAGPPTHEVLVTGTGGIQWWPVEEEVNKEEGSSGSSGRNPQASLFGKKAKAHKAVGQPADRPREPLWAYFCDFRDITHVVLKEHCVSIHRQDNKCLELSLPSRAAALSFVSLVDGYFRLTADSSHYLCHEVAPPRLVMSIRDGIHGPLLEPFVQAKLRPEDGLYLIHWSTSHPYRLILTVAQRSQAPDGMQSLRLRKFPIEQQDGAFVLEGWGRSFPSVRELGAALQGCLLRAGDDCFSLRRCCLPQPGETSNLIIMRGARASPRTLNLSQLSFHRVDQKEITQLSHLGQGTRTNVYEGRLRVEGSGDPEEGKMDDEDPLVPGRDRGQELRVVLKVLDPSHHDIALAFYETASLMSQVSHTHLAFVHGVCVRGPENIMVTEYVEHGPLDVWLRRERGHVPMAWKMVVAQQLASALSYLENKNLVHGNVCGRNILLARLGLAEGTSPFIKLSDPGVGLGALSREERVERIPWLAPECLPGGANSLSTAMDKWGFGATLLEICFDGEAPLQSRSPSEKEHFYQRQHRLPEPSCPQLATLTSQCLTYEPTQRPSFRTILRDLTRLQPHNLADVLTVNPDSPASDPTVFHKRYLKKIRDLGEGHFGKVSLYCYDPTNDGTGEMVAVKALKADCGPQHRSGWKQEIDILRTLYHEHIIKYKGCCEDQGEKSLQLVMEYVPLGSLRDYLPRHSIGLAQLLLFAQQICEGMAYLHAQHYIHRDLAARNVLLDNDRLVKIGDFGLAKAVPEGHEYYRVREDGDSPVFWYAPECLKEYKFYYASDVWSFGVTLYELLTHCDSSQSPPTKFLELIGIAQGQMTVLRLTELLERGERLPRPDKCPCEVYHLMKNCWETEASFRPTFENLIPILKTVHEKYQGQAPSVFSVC
Chain of JAK1 (P23458 whole entry): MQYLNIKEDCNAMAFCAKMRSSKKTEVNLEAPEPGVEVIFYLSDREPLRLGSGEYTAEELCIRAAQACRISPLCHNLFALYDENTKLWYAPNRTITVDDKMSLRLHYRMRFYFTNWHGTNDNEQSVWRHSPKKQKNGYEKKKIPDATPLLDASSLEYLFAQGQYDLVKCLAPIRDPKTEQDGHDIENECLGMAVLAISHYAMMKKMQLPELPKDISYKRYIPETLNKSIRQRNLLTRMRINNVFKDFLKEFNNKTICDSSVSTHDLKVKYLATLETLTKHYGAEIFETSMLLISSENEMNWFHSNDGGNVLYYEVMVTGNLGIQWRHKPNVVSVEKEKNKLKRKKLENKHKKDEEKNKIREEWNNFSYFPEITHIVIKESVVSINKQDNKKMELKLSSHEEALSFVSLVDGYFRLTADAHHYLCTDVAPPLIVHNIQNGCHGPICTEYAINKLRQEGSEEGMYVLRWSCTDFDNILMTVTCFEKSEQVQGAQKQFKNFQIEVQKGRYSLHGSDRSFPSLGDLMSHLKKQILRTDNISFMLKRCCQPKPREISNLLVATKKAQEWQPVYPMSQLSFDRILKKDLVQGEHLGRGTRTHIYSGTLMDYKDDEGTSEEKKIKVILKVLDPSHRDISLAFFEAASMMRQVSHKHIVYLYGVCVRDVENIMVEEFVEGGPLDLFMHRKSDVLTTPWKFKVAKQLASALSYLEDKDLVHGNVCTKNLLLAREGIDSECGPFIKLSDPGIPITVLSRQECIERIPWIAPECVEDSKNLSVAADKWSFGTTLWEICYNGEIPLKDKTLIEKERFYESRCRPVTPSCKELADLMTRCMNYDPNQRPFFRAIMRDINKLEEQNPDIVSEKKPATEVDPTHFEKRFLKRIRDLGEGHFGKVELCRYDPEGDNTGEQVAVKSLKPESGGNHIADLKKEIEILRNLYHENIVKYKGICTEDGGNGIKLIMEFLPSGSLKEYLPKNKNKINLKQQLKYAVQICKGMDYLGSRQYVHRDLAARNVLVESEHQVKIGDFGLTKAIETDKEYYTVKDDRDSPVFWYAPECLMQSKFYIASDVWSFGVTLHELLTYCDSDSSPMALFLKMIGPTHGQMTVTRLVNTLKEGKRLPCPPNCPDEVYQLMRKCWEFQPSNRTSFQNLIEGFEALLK
Chain of JAK2 (O60674 whole entry): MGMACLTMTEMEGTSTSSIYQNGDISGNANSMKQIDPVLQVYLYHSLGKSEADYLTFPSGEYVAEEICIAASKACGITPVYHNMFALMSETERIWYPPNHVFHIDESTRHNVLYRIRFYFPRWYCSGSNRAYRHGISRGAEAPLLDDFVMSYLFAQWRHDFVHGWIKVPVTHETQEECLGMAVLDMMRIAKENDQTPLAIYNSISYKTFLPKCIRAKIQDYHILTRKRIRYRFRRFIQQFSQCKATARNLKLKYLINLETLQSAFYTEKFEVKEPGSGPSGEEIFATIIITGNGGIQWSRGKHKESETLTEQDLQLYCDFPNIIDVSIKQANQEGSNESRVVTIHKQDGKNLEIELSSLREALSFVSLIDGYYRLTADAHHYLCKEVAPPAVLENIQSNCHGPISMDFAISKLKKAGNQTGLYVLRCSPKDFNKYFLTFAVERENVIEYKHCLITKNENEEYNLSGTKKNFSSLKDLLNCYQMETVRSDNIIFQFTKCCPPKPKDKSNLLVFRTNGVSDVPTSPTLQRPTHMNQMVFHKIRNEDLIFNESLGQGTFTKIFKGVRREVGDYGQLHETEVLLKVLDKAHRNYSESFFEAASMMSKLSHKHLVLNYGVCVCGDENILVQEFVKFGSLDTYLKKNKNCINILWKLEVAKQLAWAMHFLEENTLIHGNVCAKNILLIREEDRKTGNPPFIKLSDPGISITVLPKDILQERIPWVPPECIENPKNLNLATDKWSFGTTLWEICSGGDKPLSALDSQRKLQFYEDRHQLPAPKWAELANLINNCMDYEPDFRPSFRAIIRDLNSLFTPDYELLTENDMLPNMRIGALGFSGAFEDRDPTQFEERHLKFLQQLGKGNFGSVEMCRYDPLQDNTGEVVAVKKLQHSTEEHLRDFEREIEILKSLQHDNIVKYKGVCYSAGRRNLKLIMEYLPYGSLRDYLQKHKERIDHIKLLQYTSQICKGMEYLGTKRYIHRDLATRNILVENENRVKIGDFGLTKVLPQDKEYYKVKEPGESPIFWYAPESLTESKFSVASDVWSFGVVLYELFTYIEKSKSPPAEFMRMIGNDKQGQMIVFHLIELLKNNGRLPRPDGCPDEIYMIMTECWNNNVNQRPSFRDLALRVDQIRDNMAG

Row | SMILES | IC50 (JAK3) | IC50 (TYK2) | IC50 [1] | IC50 (JAK1) | IC50 (JAK2)
1 | Cc1cc(Nc2nc(N[C@@H]3C[C@H]4CC[C@@H](C3)N4C(=O)CN(C)C)nc3sccc23)n[nH]1 [Embodiment 243, 2-(dimethylamine)-1-((3-exo)-3-((4-((5-methyl-1H-pyrazol-3-yl)amino)thieno[2,3-d]pyrimidin-2-yl)amino)-8-azabicyclo[3.2.1]oct-8-yl)ethane-1-one] | 148 nM | 1.48 nM | 0.24 nM | 0.53 nM | 2.42 nM
2 | Cc1cc(Nc2nc(N[C@@H]3C[C@H]4CC[C@@H](C3)N4CCC#N)nc3cc[nH]c23)n[nH]1 [Embodiment 40, 3-((3-exo)-3-((4-((5-methyl-1H-pyrazol-3-yl)amino)-5H-pyrrolo[3,2-d]pyrimidin-2-yl)amino)-8-azabicyclo[3.2.1]oct-8-yl)pronionitrile] | 8.78 nM | 1.01 nM | 17.4 nM | 0.83 nM | 0.77 nM
3 | COc1ccc2c(Nc3cc(C)[nH]n3)nc(N(C)[C@@H]3C[C@H]4CC[C@@H](C3)N4S(=O)(=O)N3CC(C#N)C3)nc2c1 [Embodiment 218, 1-(((3-exo)-3-((7-methoxyl-4-((5-methyl-1H-pyrazol-3-yl)amino)quinazolin-2-yl)(methyl)amino)-8-azabicyclo[3.2.1]oct-8-yl)sulfonyl)azetindin-3-formonitrile] | 19.6 nM | 0.4 nM | 61.5 nM | 0.27 nM | 1.05 nM
4 | COc1ccc2c(Nc3cc(C)[nH]n3)nc(N[C@@H]3C[C@H]4CCC[C@@H](C3)N4S(=O)(=O)N3CC(C#N)C3)nc2c1 [Embodiment 219, 1-(((3-exo)-3-((7-methoxyl-4-((5-methyl-1H-pyrazol-3-yl)amino)quinazolin-2-yl)amino)-9-azabicyclo[3.3.1]non-9-yl)sulfonyl)azetindin-3-formonitrile] | 2.61 nM | 0.13 nM | 117 nM | 0.09 nM | 0.76 nM
5 | Cc1cc(Nc2cc3ncccc3c(N[C@@H]3C[C@@H]4CN(CCC#N)C[C@@H]4C3)n2)n[nH]1 [Embodiment 5, 3-(cis-5-((7-((5-methyl-1H-pyrazol-3-yl)amino)-1,6-diazanaphthalen-5-yl)amino)hexahydrocyclopentadieno[c]pyrrole-2(1H)-yl)propionitrile] | 26.5 nM | 4.44 nM | 4.12 nM | 0.85 nM | 1.39 nM
6 | CN(c1nc(Nc2cc(CO)[nH]n2)c2ccsc2n1)[C@@H]1C[C@H]2CCC[C@@H](C1)N2S(=O)(=O)N1CC(C#N)C1 [Embodiment 132, 1-(((3-exo)-3-((4-((5-(hydroxymethyl)-1H-pyrazol-3-yl)amino)thieno[2,3-d]pyrimidin-2-yl)(methyl)amino)-9-azabicyclo[3.3.1]non-9-yl)sulfonyl)azetindin-3-formonitrile] | 3.43 nM | 0.42 nM | 23.8 nM | 0.1 nM | 0.77 nM
7 | Cc1cc(Nc2nc(N[C@@H]3C[C@H]4CCC[C@@H](C3)N4S(=O)(=O)N3CC(C#N)C3)nc3ccccc23)n[nH]1 [Embodiment 217] | 1.92 nM | 0.1 nM | 36.7 nM | 0.04 nM | 1.61 nM
8 | Cc1cc(Nc2nc(N[C@@H]3C[C@H]4CCC[C@@H](C3)N4C(=O)CN(C)C)nc3sccc23)n[nH]1 [Embodiment 242, 2-(dimethylamine)-1-((3-exo)-3-((4-((5-methyl-1H-pyrazol-3-yl)amino)thieno[2,3-d]pyrimidin-2-yl)amino)-9-azabicyclo[3.3.1]non-9-yl)ethane-1-one] | 6.58 nM | 0.89 nM | 0.24 nM | 0.21 nM | 0.85 nM
9 | Cc1cc(Nc2nc(N[C@@H]3C[C@H]4CC[C@@H](C3)N4CCC#N)nc3cnccc23)n[nH]1 [Embodiment 173, 3-((3-exo)-3-((4-((5-methyl-1H-pyrazol-3-yl)amino)pyrido[3,4-d]pyrimidin-2-yl)amino)-8-azabicyclo[3.2.1]oct-8-yl)propionitrile] | 26.3 nM | 0.84 nM | – | 1.07 nM | 1.15 nM
10 | Cc1cc(Nc2cc3ncccc3c(N3CC4CCC(C3)N4CCC#N)n2)n[nH]1 [Embodiment 109, 3-(3-(7-((5-methyl-1H-pyrazol-3-yl)amino)-1,6-diazanaphthalen-5-yl)-3,8-diazabicyclo[3.2.1]oct-8-yl)propionitrile] | 25.9 nM | 33.9 nM | – | 7.85 nM | 6.27 nM
11 | Cc1cc(Nc2nc(N(C)[C@@H]3C[C@H]4CC[C@@H](C3)N4S(=O)(=O)N3CC(C#N)C3)nc3sccc23)n[nH]1 [Embodiment 241, 1-(((3-exo)-3-(methyl(4-((5-methyl-1H-pyrazol-3-yl)amino)thieno[2,3-d]pyrimidin-2-yl)amino)-8-azabicyclo[3.2.1]oct-8-yl)sulfonyl)azetindin-3-formonitrile] | 7.35 nM | 0.22 nM | 115 nM | 0.15 nM | 1.39 nM
12 | Cc1cc(Nc2nc(N(C)[C@@H]3C[C@H]4CCC[C@@H](C3)N4S(=O)(=O)N3CC(C#N)C3)nc3sccc23)n[nH]1 [Embodiment 239, 1-(((3-exo)-3-(methyl(4-((5-methyl-1H-pyrazol-3-yl)amino)thieno[2,3-d]pyrimidin-2-yl)amino)-9-azabicyclo[3.3.1]non-9-yl)sulfonyl)azacyclobutane-3-nitrile] | 3.11 nM | 0.22 nM | 39 nM | 0.13 nM | 1.25 nM
13 | N#CCCN1[C@@H]2CC[C@H]1C[C@H](Nc1nc(Nc3ncc(CO)s3)cc3ncccc13)C2 [Embodiment 2] | 8.95 nM | 2.3 nM | – | 0.11 nM | 0.53 nM
14 | N#CCCN1[C@@H]2CC[C@H]1C[C@H](Nc1nc(Nc3cc(CO)[nH]n3)c3ccsc3n1)C2 [Embodiment 273] | > 200 nM | 2.19 nM | 41.9 nM | 1.28 nM | 2.96 nM
15 | Cc1cc(Nc2nc(N[C@@H]3C[C@H]4CC[C@@H](C3)N4CCC#N)nc3ccccc23)n[nH]1 [Embodiment 4, 3-((3-exo)-3-((4-((5-methyl-1H-pyrazol-3-yl)amino)quinazolin-2-yl)amino)-8-azabicyclo[3.2.1]oct-8-yl)propionitrile] | 5.72 nM | 0.68 nM | 2.6 nM | 0.86 nM | 0.55 nM
